From patent US10980735B2, “Externally-applied dermal preparation composition containing extract of green tea cultivated under extreme shading” (AMOREPACIFIC CORPORATION, priority 2016, dated 2021)

How the values were obtained:
[1] = target: T1, elastase type III (Sus scrofa, UniProt P00772); assay: Inhibitory effect of elastase activity; assay type: biochemical; conditions: EGCG 250 μM as positive control; 25° C., 15 minutes, pH 8.0
T1 construct: purchased Sigma-Aldrich, U.S.A. E0127
Experimental: The inhibitory effect of elastase activity of the extract of green tea cultivated by extreme light-shielding on anti-aging was measured in comparison with that of EGCG. The elastase and the substrate used herein were purchased from Sigma-Aldrich, […]0127). The inhibitory function of elastase activity was tested according to the following method. In a 96-well plate, […] (200 μL) and 50 μL of a 20 μg/mL elastase type III solution were mixed with a […] Tris-HCL buffer solution (pH 8.0). EGCG 250 μM was used as a positive control, and purified water was used as a non-treated group, which was a negative control. […] After completion of the reaction, the absorbance at the wavelength of 415 nm was measured. […] The inhibitory function of elastase was calculated according to the following Mathematical Formula 2, and the results are shown in Table 10. […] A: Absorbance at the wavelength of 415 nm in the absence of the test material and in the presence of enzyme B: Absorbance at the wavelength of 415 nm in the absence of the test material and enzyme C: Absorbance at the wavelength of 415 nm in the presence of the test material and enzyme D: Absorbance at the wavelength of 415 nm in the presence of the test material and in the absence of enzyme

[2] = tested on: collagenase (MMP-1); assay: Collagenase (MMP-1) production in human fibroblasts (ELISA); assay type: cell-based; conditions: 10 μg/ml, 24 hours, non-treated group = 100
Experimental: The collagenase production inhibitory effect of the present invention on wrinkle improvement was measured in comparison with retinoic acid.
Human fibroblasts were seeded at 5,000 cells/well in a 96-well microtiter plate filled with a Dulbecco's modified eagle's medium (DMEM) containing 2.5% fetal bovine serum and cultured in a 5% CO2 incubator at 37° C. until they grew by about 70 to 80%. The cells were treated with the extracts of Examples 1 and 2 and Comparative Examples 1 and 3 or retinoic acid at a concentration of 10 μg/ml for 24 hours, and the cell culture was collected.
The production yield of collagenase in the collected cell culture was measured using a collagenase measurement instrument commercially available (Catalog #. RPN 2610, manufactured by Amersham Pharma Inc., USA). […]
The absorbance of the yellow-colored 96-well plate was measured at 405 nm with a spectrophotometer, and the expression level of collagenase was calculated according to the following Mathematical Formula 1. At this time, the absorbance of the cell culture collected from the group not treated with the composition was considered as the control group. Expression level of collagenase (%)=Absorbance of substance-treated cell group/Absorbance of control group×100 [Mathematical Formula 1]

T1 sequence (P00772 27-266): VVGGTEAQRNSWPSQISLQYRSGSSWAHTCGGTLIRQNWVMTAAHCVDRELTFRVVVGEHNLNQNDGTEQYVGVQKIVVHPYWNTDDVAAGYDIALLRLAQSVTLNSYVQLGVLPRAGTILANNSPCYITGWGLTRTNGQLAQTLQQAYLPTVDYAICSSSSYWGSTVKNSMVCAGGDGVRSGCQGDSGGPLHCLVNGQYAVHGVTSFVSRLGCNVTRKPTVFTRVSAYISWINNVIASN

| Compound | Inhibition level of elastase activity [1] [%] | Expression level of collagenase [2] [%] |
| --- | --- | --- |
| O=C(O[C@@H]1Cc2c(O)cc(O)cc2O[C@@H]1c1cc(O)c(O)c(O)c1)c1cc(O)c(O)c(O)c1 [EGCG] | 65 |  |
| CC1=C(/C=C/C(C)=C/C=C/C(C)=C/C(=O)O)C(C)(C)CCC1 [Retinoic acid, retinoic acid] |  | 75 |
